Legend:
[1] = biological target: T1, human GST-DYRK1A (Homo sapiens, UniProt Q13627); test: GST-DYRK1A enzyme inhibition, ADP-Glo kinase assay; type: biochemical; conditions: ATP 10 μM, GST-DYRK1A full length, read-out: DYRK1 IC50
T1 construct: purified human GST-DYRK1A (full length, Thermo Scientifics) enzyme; purchased Thermo Scientifics
Procedure: (§1) To evaluate an inhibitory activity of the compound according to the present invention against LRRK2, LRRK2 (G2019S), DYRK1, CLK1, and TTK kinases, experiments were performed as follows.
(§2) Each of the Example compounds was reacted with a purified human GST-DYRK1A (full length, Thermo Scientifics) enzyme to evaluate an ability to inhibit an enzyme using a method as described below. A composition of 40 mM Tris-HCl (pH 7.4), 20 mM MgCl2, 0.5 mg/mL BSA, and 50 μM DTT was used as a reaction buffer, and all reactions of test substances were performed in the reaction buffer. In the test, purified ATP (10 μM) and a specific substrate solution were reacted with a human GST-DYRK1A (full length, 10 ng) enzyme at 25° C. for an hour, and the enzyme activities were then determined using an in vitro ADP-Glo™ kinase assay (Promega). An enzyme-activity reaction solution, an ADP-Glo reaction solution, and an enzyme-ability detection solution were reacted at a ratio of 2:2:1 to measure a degree of inhibition of the enzyme activity with luminescence. The degree of inhibition of the enzyme activity according to the treatment concentration of each of the compounds was calculated based on the fluorescence of the enzyme activity of the solvent control which was not treated with the compound. In this case, the concentration of each of the compounds inhibiting 50% of the enzyme activity was determined to be an IC50 (nM) value, and the IC50 (nM) value of each of the compounds was determined from 3 sets of data, and calculated using Prism (Version 5.01; GraphPad) software.

[2] = biological target: T2, human GST-CLK1 (Homo sapiens, UniProt P49759); test: GST-CLK1 enzyme inhibition, ADP-Glo kinase assay; type: biochemical; conditions: ATP 10 μM, GST-CLK1 129-end
T2 construct: purified human GST-CLK1 (129-end, SignalChem) enzyme; purchased SignalChem
Procedure: as §1
as §2, with “GST-CLK1 (129-end, SignalChem)” for “GST-DYRK1A (full length, Thermo Scientifics)”, “GST-CLK1 (129-end, 3” for “GST-DYRK1A (full length, 10”, “value. The” for “value, and the”

T2 sequence (P49759 129-484 limits assumed): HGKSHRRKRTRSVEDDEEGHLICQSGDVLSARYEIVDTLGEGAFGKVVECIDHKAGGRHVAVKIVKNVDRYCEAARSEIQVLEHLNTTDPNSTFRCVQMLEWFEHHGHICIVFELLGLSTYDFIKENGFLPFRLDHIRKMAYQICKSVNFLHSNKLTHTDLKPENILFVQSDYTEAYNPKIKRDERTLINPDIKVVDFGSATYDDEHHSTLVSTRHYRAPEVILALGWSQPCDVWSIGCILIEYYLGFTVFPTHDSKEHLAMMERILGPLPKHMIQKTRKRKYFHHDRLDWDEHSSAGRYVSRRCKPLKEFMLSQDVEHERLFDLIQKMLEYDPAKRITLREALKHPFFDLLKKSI

| SMILES | IC50 [1] | IC50 [2] |
| --- | --- | --- |
| CCCNc1nc(Nc2ccc(P3(=O)CCN(C4COC4)CC3)cc2OC)nc2[nH]cc(C#N)c12 [Example 283, 2-((2-methoxy-4-(1-(oxetan-3-yl)-4-oxido-1,4-azaphosphinan-4-yl)phenyl)amino)-4-(propylamino)-7H-pyrrolo[2,3-d]pyrimidine-5-carbonitrile] | 301 to 1000 nM | 101 to 300 nM |
| COc1cc(P2(=O)CCN(C3CC3)CC2)ccc1Nc1nc(NCC2CCC2)c2c(C#N)c[nH]c2n1 [Example 306, 4-((cyclo-butylmethyl)amino)-2-((4-(1-cyclopropyl-4-oxido-1,4-azaphosphinan-4-yl)-2-methoxyphenyl)a-mino)-7H-pyrrolo[2,3-d]pyrimidine-5-carbonitrile] | 301 to 1000 nM | 301 to 1000 nM |
| COc1cc(P2(=O)CCN(C3COC3)CC2)ccc1Nc1nc(NCC2CCCC2)c2c(C#N)c[nH]c2n1 [Example 309, 4-((cyclo-pentylmeth-yl)amino)-2-((2-methoxy-4-(1-(oxetan-3-yl)-4-oxido-1,4-azaphosphinan-4-yl)phenyl)amino)-7H-pyrrolo[2,3-d]pyrimidine-5-carbonitrile] | 301 to 1000 nM | 301 to 1000 nM |
| N#Cc1c[nH]c2nc(Nc3ccc(C(=O)N4CCOCC4)c4c3OCCO4)nc(NC3CCOCC3)c12 [Example 129, 2-((8-(morpholine-4-carbonyl)-2,3-dihydrobenzo[b][1,4]dioxin-5-yl)amino)-4-((tetrahydro-2H-pyran-4-yl)amino)-7H-pyrrolo[2,3-d]pyrimidine-5-carbonitrile] | 301 to 1000 nM | 301 to 1000 nM |
| CC[C@@H](C)Nc1nc(Nc2ccc(P3(=O)CCN(C4COC4)CC3)cc2OC)nc2[nH]cc(C#N)c12 [Example 295, (R)-4-(sec-butylamino)-2-((2-methoxy-4-(1-(oxetan-3-yl)-4-oxido-1,4-azaphosphinan-4-yl)phenyl)amino)-7H-pyrrolo[2,3-d]pyrimidine-5-carbonitrile] | 301 to 1000 nM | < 100 nM |
| COc1cc(P2(=O)CCN(C3CC3)CC2)ccc1Nc1nc(NCCS(C)(=O)=O)c2c(C#N)c[nH]c2n1 [Example 310, 2-((4-(1-cycloproopyl-4-oxido-1,4-azaphosphinan-4-yl)-2-methoxyphenyl)a-mino)-4-((2-(methylsulfonyl)ethyl)amino)-7H-pyrrolo[2,3-d]pyrimidine-5-carbonitrile] | 301 to 1000 nM | 101 to 300 nM |
| CC(C)Nc1nc(Nc2ccc(C(=O)N3CCC(N4CCOCC4)CC3)c3c2OCCO3)nc2[nH]cc(C(F)(F)F)c12 [Example 365, (8-((4-(isopropylamino)-5-(trifluoromethyl)-7H-pyrrolo[2,3-d]pyrimidin-2-yl)amino)-2,3-dihydrobenzo[b] [1,4]dioxin-5-yl) (4-morpholino-piperidin-1-yl)methanone] | < 100 nM | < 100 nM |
| N#Cc1c[nH]c2nc(Nc3ccc(C(=O)N4CC(CO)(CO)C4)c4c3OCCO4)nc(N[C@@H]3CCOC3)c12 [Example 335, (R)-2-((8-(3,3-bis(hydroxy-methyl)azetidine-1-carbonyl)-2,3-dihydrobenzo[b] [1,4]dioxin-5-yl)amino)-4-((tetrahydrofuran-3-yl)amino)-7H-pyrrolo[2,3-d]pyrimidine-5-carbonitrile] | 101 to 300 nM | < 100 nM |
| COc1cc(P(C)(C)=O)ccc1Nc1nc(NC2CCOCC2)c2c(C#N)c[nH]c2n1 [Example 272, 2-((4-(dimethylphosphoryl)-2-methoxyphenyl)amino)-4-((tetrahydro-2H-pyran-4-yl)amino)-7H-pyrrolo[2,3-d]pyrimidine-5-carbonitrile] | 301 to 1000 nM | 301 to 1000 nM |
| COCCNc1nc(Nc2ccc(C(=O)N3CCOCC3)c3c2OCC3)nc2[nH]cc(C#N)c12 [Example 358, 4-((2-methoxy-ethyl)ami-no)-2-((4-(morpholine-4-carbonyl)-2,3-dihydrobenzo-furan-7-yl)amino)-7H-pyrrolo[2,3-d]pyrimidine-5-carbonitrile] | 101 to 300 nM | 101 to 300 nM |
| COc1cc(P2(=O)CCN(C3COC3)CC2)ccc1Nc1nc(N[C@@H]2CCOC2)c2c(C#N)c[nH]c2n1 [Example 299, (R)-2-((2-methoxy-4-(1-(oxetan-3-yl)-4-oxido-1,4-azaphosphinan-4-yl)phenyl)amino)-4-((tetrahydrofuran-3-yl)amino)-7H-pyrrolo[2,3-d]pyrimidine-5-carbonitrile] | 301 to 1000 nM | 101 to 300 nM |
| CCCNc1nc(Nc2ccc(C(=O)N3CC(CO)(CO)C3)c3c2OCCO3)nc2[nH]cc(C#N)c12 [Example 327, 2-((8-(3,3-bis(hydroxy-methyl)azetidine-1-carbonyl)-2,3-dihydrobenzo[b] [1,4]dioxin-5-yl)amino)-4-(propylamino)-7H-pyrrolo[2,3-d]pyrimidine-5-carbonitrile] | 301 to 1000 nM | < 100 nM |
| N#Cc1c[nH]c2nc(Nc3ccc(C(=O)N4CCC(N5CCOCC5)CC4)c4c3OCCO4)nc(NC3CCCCC3)c12 [Example 142, 4-(cyclohexylamino)-2-((8-(4-morpholinopiperidine-1-carbonyl)-2,3-dihydrobenzo[b][1,4]dioxin-5-yl)amino)-7H-pyrrolo[2,3-d]pyrimidine-5-carbonitrile] | 301 to 1000 nM | < 100 nM |
| CC[C@H](C)Nc1nc(Nc2ccc(S(C)(=O)=O)cc2OC)nc2[nH]cc(C(F)(F)F)c12 [Example 380, (S)-N^4-(sec-butyl)-N^2-(2-methoxy-4-(methylsulfonyl)phenyl)-5-(trifluoromethyl)-7H-pyrrolo[2,3-d]pyrimidine-2,4-diamine] | 301 to 1000 nM | 301 to 1000 nM |
| N#Cc1c[nH]c2nc(Nc3ccc(C(=O)N4CC(CO)(CO)C4)c4c3OCCO4)nc(NCC3CC3)c12 [Example 338, 2-((8-(3,3-bis (hydroxymethyl)azetidine-1-carbonyl)-2,3-dihydrobenzo [b][1,4]dioxin-5-yl)amino)-4-((cyclopropyl-meth-yl)amino)-7H-pyrrolo[2,3-d]pyrimidine-5-carbonitrile] | 101 to 300 nM | < 100 nM |
| N#Cc1c[nH]c2nc(Nc3ccc(C(=O)N4CCOCC4)c4c3OCCO4)nc(N[C@@H]3CCOC3)c12 [Example 127, (R)-2-((8-(morpholine-4-carbonyl)-2,3-dihydrobenzo[b][1,4]dioxin-5-yl)amino)-4-((tetrahydrofuran-3-yl)amino)-7H-pyrrolo[2,3-d]pyrimidine-5-carbonitrile] | 301 to 1000 nM | < 100 nM |
| CCCCNc1nc(Nc2ccc(C(=O)N3CC(CO)(CO)C3)c3c2OCCO3)nc2[nH]cc(C#N)c12 [Example 341, 2-((8-(3,3-bis (hydroxymethyl)azetidine-1-carbonyl)-2,3-dihydrobenzo [b][1,4]dioxin-5-yl)amino)-4-(butylamino)-7H-pyrrolo[2,3-d]pyrimidine-5-carbonitrile] | 301 to 1000 nM | < 100 nM |
| CC[C@H](C)Nc1nc(Nc2ccc(P3(=O)CCN(C4COC4)CC3)cc2OC)nc2[nH]cc(C#N)c12 [Example 297, (S)-4-(sec-butylamino)-2-((2-methoxy-4-(1-(oxetan-3-yl)-4-oxido-1,4-azaphosphinan-4-yl)phenyl)amino)-7H-pyrrolo[2,3-d]pyrimidine-5-carbonitrile] | 301 to 1000 nM | 101 to 300 nM |
| COc1cc(P2(=O)CCN(C3COC3)CC2)ccc1Nc1nc(N[C@H]2CCOC2)c2c(C#N)c[nH]c2n1 [Example 301, (S)-2-((2-methoxy-4-(1-(oxetan-3-yl)-4-oxido-1,4-azaphosphinan-4-yl)phenyl)amino)-4-((tetrahydrofuran-3-yl)amino)-7H-pyrrolo[2,3-d]pyrimidine-5-carbonitrile] | 301 to 1000 nM | < 100 nM |
| CC[C@H](C)Nc1nc(Nc2ccc(C(=O)N3CC(CO)(CO)C3)c3c2OCCO3)nc2[nH]cc(C#N)c12 [Example 331, (S)-2-((8-(3,3-bis(hydroxy-methyl)azetidine-1-carbonyl)-2,3-dihydrobenzo[b] [1,4]dioxin-5-yl)amino)-4-(sec-butylamino)-7H-pyrrolo[2,3-d]pyrimidine-5-carbonitrile] | 301 to 1000 nM | < 100 nM |

— patent US20230066011A1, “PYRROLOPYRIMIDINE DERIVATIVE, AND PHARMACEUTICAL COMPOSITION FOR PREVENTING OR TREATING PROTEIN KINASE-RELATED DISEASE COMPRISING SAME AS ACTIVE INGREDIENT” (VORONOI CO., LTD., priority 2019, published 2023)
